Laboratory results as given in patent US10294202B2, “Pyrrolidinones as herbicides” (FMC Corporation, priority 2013, dated 2019).
Where two headings read alike, the source gives them in different places.

Key:
giant foxtail = test: Test A pre-/postemergence herbicide test; format: in vivo, Setaria faberii; conditions: for pest or weed control at 500 g/ha: 500 g ai/ha
How it was run: (§1)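 Planted in loam–sand blend; treated the same day preemergence by directed soil spray, while separately grown plants at one- to two-leaf stage got postemergence spray. Compared visually with untreated controls after approximately 10 days; 100 means complete control.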

ragweed = test: Test C pre-/postemergence herbicide test; format: in vivo, Ambrosia elatior; conditions: Postemergence
How it was run: (§2)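 Test compounds, formulated in a surfactant-containing non-phytotoxic solvent blend, are applied to seeded loam/sand soil (preemergence) and to young plants at the 1- to 4-leaf stage in peat-based medium (postemergence). Plants stay 13 to 15 days under greenhouse conditions, then are scored visually relative to controls, 0 = no effect, 100 = complete control.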

wheat = test: Test A pre-/postemergence herbicide test; format: in vivo, Triticum aestivum; conditions: for plant injury at 500 g/ha: 500 g ai/ha
How it was run: as §1

oilseed rape = test: Test C pre-/postemergence herbicide test; format: in vivo, Brassica napus
How it was run: as §2

blackgrass = test: Test C pre-/postemergence herbicide test; format: in vivo, Alopecurus myosuroides
How it was run: as §2

corn [1] = test: Test A pre-/postemergence herbicide test; format: in vivo, Zea mays; conditions: for Corn plant response rating (crop injury, 0 = no effect, 100 = complete kill) at 500 g/ha: 500 g ai/ha
How it was run: as §1

sedge, umbrella = test: Test B flooded paddy test; format: in vivo, Cyperus difformis; conditions: 250 g ai/ha, Flood; scale of 0 to 100 where 0 is no effect and 100 is complete control
How it was run: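 Scoring: visual, compared with untreated controls, 0 = no effect through 100 = complete control, taken 13 to 15 days after treatment in the greenhouse. Compounds had been added to paddy water over soil flooded 3 cm deep at the plants' 2-leaf stage.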

galium = test: Test C pre-/postemergence herbicide test; format: in vivo, Galium aparine
How it was run: as §2

johnsongrass = test: Test C pre-/postemergence herbicide test; format: in vivo, Sorghum halepense
How it was run: as §2

corn [2] = test: Test C pre-/postemergence herbicide test; format: in vivo, Zea mays
How it was run: as §2

foxtail, giant = test: Test C pre-/postemergence herbicide test; format: in vivo, Setaria faberii
How it was run: as §2

[3] = Preemergence, 125 g ai/ha, visual rating on 0 to 100 scale (0 no effect, 100 complete control)
[4] = Postemergence, 31 g ai/ha, scale 0 (no effect) to 100 (complete control)
[5] = Postemergence, 62 g ai/ha, scale 0 to 100 (0 no effect, 100 complete control)
[6] = Postemergence, 125 g ai/ha, scale 0 to 100 (0 no effect, 100 complete control)
[7] = Postemergence, 250 g ai/ha, scale 0 to 100 (0 no effect, 100 complete control)
[8] = Preemergence, 31 g ai/ha, scale 0 to 100, 0 is no effect and 100 is complete control
[9] = Preemergence, 62 g ai/ha, scale 0 to 100
[10] = Preemergence, 125 g ai/ha, scale 0 to 100 (0 no effect, 100 complete control)

With O=C1NCC(c2ccc(C(F)(F)F)cc2)C1C(=O)Nc1ccccc1F (stereo not shown) [Compound 79, N-(2-fluorophenyl)-2-oxo-4-[4-(trifluoromethyl)phenyl]-3-pyrrolidinecarboxamide] the “Foxtail, Giant plant response rating” value (giant foxtail; [3]) was 90, the pest or weed control at 125 g/ha (giant foxtail; Setaria faberi, post-emergence, 240 h, Postemergence, 125 g ai/ha, 0 to 100 scale, 0 no effect, 100 complete control, read-out: Plant response rating, Foxtail, Giant) was 80% and the pest or weed control at 500 g/ha (giant foxtail; Setaria faberi, post-emergence, 240 h, Postemergence, 0 to 100 scale (0 no effect, 100 complete control), read-out: Plant response rating, Foxtail, Giant) was 80%. For the same compound, the pest or weed control at 500 g/ha (giant foxtail; Setaria faberi, pre-emergence, 240 h, preemergence, 0 to 100 scale, read-out: Plant response rating, Foxtail, Giant) was 90%, the “Plant response rating, Ragweed” value (ragweed; 31 g ai/ha, scale 0 (no effect) to 100 (complete control)) was 20 and the “Plant response rating, Ragweed” value (ragweed; 62 g ai/ha, scale 0 to 100 (0 no effect, 100 complete control)) was 20. For the same compound, the “Plant response rating, Ragweed” value (ragweed; 125 g ai/ha, scale 0 to 100 (0 no effect, 100 complete control)) was 20, the “Plant response rating, Ragweed” value (ragweed; 250 g ai/ha, scale 0 to 100 (0 no effect, 100 complete control)) was 45 and the “Wheat plant response rating” value (wheat; [3]) was 0. It also gave a plant injury at 125 g/ha (wheat; Triticum aestivum, post-emergence, 240 h, Postemergence, 125 g ai/ha, 0 to 100 scale, 0 no effect, 100 complete control, read-out: Plant response rating, Wheat) of 30%, a plant injury at 500 g/ha (wheat; Triticum aestivum, post-emergence, 240 h, Postemergence, 0 to 100 scale (0 no effect, 100 complete control), read-out: Plant response rating, Wheat) of 50% and a plant injury at 500 g/ha (wheat; Triticum aestivum, pre-emergence, 240 h, preemergence, 0 to 100 scale, read-out: Plant response rating, Wheat) of 20%. For the same compound, the “Plant response rating, Oilseed Rape” value (oilseed rape; [4]) was 0, the “Plant response rating, Oilseed Rape” value (oilseed rape; [5]) was 0 and the “Plant response rating, Oilseed Rape” value (oilseed rape; [6]) was 0. For the same compound, the “Plant response rating, Oilseed Rape” value (oilseed rape; [7]) was 0, the “Oilseed Rape plant response rating” value (oilseed rape; [8]) was 0 and the “Plant response rating, Oilseed Rape” value (oilseed rape; [9]) was 5. The “Plant response rating, Oilseed Rape” value (oilseed rape; [10]) was 70, the “Plant response rating (scale of 0 to 100), Oilseed Rape” value (oilseed rape; Preemergence, 250 g ai/ha) was 80 and the “Plant response rating, Blackgrass” value (blackgrass; [4]) was 0. For the same compound, the “Plant response rating, Blackgrass” value (blackgrass; [5]) was 0, the “Plant response rating, Blackgrass” value (blackgrass; [6]) was 0 and the “Plant response rating, Blackgrass” value (blackgrass; [7]) was 5. For the same compound, the “Blackgrass plant response rating” value (blackgrass; [8]) was 0, the “Plant response rating, Blackgrass” value (blackgrass; [9]) was 65 and the “Plant response rating, Blackgrass” value (blackgrass; [10]) was 85. The “Plant response rating (scale of 0 to 100), Blackgrass” value (blackgrass; Preemergence, 250 g ai/ha) was 85, the “Corn plant response rating” value (corn [1]; [3]) was 0 and the Corn plant response rating (crop injury, 0 = no effect, 100 = complete kill) at 125 g/ha (corn [1]; Zea mays, post-emergence, 240 h, Postemergence, 125 g ai/ha, 0 to 100 scale, 0 no effect, 100 complete control) was 20%. For the same compound, the Corn plant response rating (crop injury, 0 = no effect, 100 = complete kill) at 500 g/ha (corn [1]; Zea mays, post-emergence, 240 h, Postemergence, 0 to 100 scale (0 no effect, 100 complete control)) was 70%, the Corn plant response rating (crop injury, 0 = no effect, 100 = complete kill) at 500 g/ha (corn [1]; Zea mays, pre-emergence, 240 h, preemergence, 0 to 100 scale) was 0% and the “Plant response rating, Sedge, Umbrella” value (sedge, umbrella) was 0. The “Plant response rating, Galium” value (galium; [4]) was 30, the “Plant response rating, Galium” value (galium; [5]) was 60 and the “Plant response rating, Galium” value (galium; [6]) was 60. For the same compound, the “Galium plant response rating” value (galium; [8]) was 0, the “Plant response rating, Galium” value (galium; [9]) was 5 and the “Plant response rating, Galium” value (galium; [10]) was 85. The “Plant response rating (scale of 0 to 100), Galium” value (galium; Preemergence, 250 g ai/ha) was 90, the “Plant response rating, Johnsongrass” value (johnsongrass; [4]) was 0 and the “Plant response rating, Johnsongrass” value (johnsongrass; [5]) was 0. The “Plant response rating, Johnsongrass” value (johnsongrass; [6]) was 0, the “Plant response rating, Johnsongrass” value (johnsongrass; [7]) was 5 and the “Johnsongrass plant response rating” value (johnsongrass; [8]) was 0. For the same compound, the “Plant response rating, Johnsongrass” value (johnsongrass; [9]) was 0, the “Plant response rating, Johnsongrass” value (johnsongrass; [10]) was 10 and the “Plant response rating (scale of 0 to 100), Johnsongrass” value (johnsongrass; Preemergence, 250 g ai/ha) was 10. For the same compound, the “Plant response rating, Corn” value (corn [2]; [4]) was 0, the “Plant response rating, Corn” value (corn [2]; [5]) was 0 and the “Plant response rating, Corn” value (corn [2]; [6]) was 0. For the same compound, the “Plant response rating, Corn” value (corn [2]; [7]) was 0, the “Corn plant response rating” value (corn [2]; [8]) was 0 and the “Plant response rating, Corn” value (corn [2]; [9]) was 0. For the same compound, the “Plant response rating, Corn” value (corn [2]; [10]) was 10, the “Plant response rating (scale of 0 to 100), Corn” value (corn [2]; Preemergence, 250 g ai/ha) was 30 and the “Plant response rating, Foxtail, Giant” value (foxtail, giant; [4]) was 15. The “Plant response rating, Foxtail, Giant” value (foxtail, giant; [5]) was 15, the “Plant response rating, Foxtail, Giant” value (foxtail, giant; [6]) was 15 and the “Plant response rating, Foxtail, Giant” value (foxtail, giant; [7]) was 15. The “Foxtail, Giant plant response rating” value (foxtail, giant; [8]) was 80, the “Plant response rating, Foxtail, Giant” value (foxtail, giant; [9]) was 90 and the “Plant response rating, Foxtail, Giant” value (foxtail, giant; [10]) was 95. For the same compound, the “Plant response rating (scale of 0 to 100), Foxtail, Giant” value (foxtail, giant; Preemergence, 250 g ai/ha) was 98.
